Results reported in patent US8871767B2, “2-arylimidazo[1,2-B]pyridazine, 2-phenylimidazo[1,2-A]pyridine, and 2-phenylimidazo[1,2-A]pyrazine derivatives” (Hengrui (USA) Ltd., priority 2010, dated 2014).

tested on: Hedgehog pathway activation (GLi-luciferase reporter) in Shh Light II reporter cells; test: Hedgehog pathway activation on Shh Light II reporter cells measured by luciferase activity; assay type: cell-based; details: Mus musculus, Shh Light II, hShh activation, read-out: Shh (IC50, inhibition of Hedgehog pathway activation)
Method: Hedgehog conditioned media was obtained by transfecting 293H cells with the full length gene encoding human Sonic Hedgehog (hShh) inserted into the pCMV6 expression vector, which contains a neomycin selectable marker and expresses the protein of interest with a C-terminal FLAG affinity tag. After selection in G418 containing media, conditioned media from Hedgehog expressing clones were tested for the ability to activate the hedgehog-responsive GLi-luciferase reporter in the Shh Light II cell line obtained by license from John Hopkins University (Taipale J, et al. Effects of oncogenic mutations in Smoothened and Patched can be reversed by cyclopamine. Nature 406: 1005-1009, 2000).
A test compound library was screened against hShh and 500 nM SAG (a direct agonist of the Smoothened receptor) activated 10T1/2/Smo#3 cells and Shh Light II reporter cells for the ability to block Hedgehog pathway activation. Concurrently, cell viability was measured by utilizing Celltiter-Blue® (Promega, Madison Wis.) viability assay. Active compounds were defined as those that inhibited Hedgehog signaling by greater than 50% with no concurrent loss in cell viability.
Their inhibitory activity against Hedgehog pathway activation on 10T1/2/Smo#3 cells as measured by ALP activity and Shh Light II reporter cells as measured by luciferase activity is shown in Table 1 below. In Table 1, +++ stands for an IC50 value that is less than 0.3 μM, ++ between 0.3 and 3 μM, + between 3 and 30 μM.
Additional data for compounds of the invention is shown below in Table 2. Their inhibitory activities against Hedgehog pathway activation are shown as IC50 values in μM on 10T1/2/Smo#3 cells as measured by ALP activity, or on Shh Light II reporter cells as measured by luciferase activity (hShh activation).

IC50 | SMILES
385 nM | CNC(=O)c1ccccc1-c1ccc2nc(-c3ccc(C)c(NC(=O)C(C)(C)C)c3)cn2n1 [Example 452, N-methyl-2-(2-(4-methyl-3-pivalamidophenyl)imidazo[1,2-b]pyridazin-6-yl)benzamide]
78 nM | Cc1ccc(-c2cn3nc(NC(=O)c4ncccc4Cl)ccc3n2)cc1NC(=O)C(C)(C)C [compound 612]
474 nM | COc1cncc(-c2ccc3nc(-c4ccc(C)c(NC(=O)C(C)(C)C)c4)cn3n2)c1 [Example 403, N-(5-(6-(5-methoxypyridin-3-yl)imidazo[1,2-b]pyridazin-2-yl)-2-methylphenyl)pivalamide]
975 nM | CCOC(=O)CCC(=O)Nc1cc(-c2cn3nc(-c4cccnc4C(F)(F)F)ccc3n2)ccc1C [Example 436, ethyl 4-(2-methyl-5-(6-(2-(trifluoromethyl)pyridin-3-yl)imidazo[1,2-b]pyridazin-2-yl)phenylamino)-4-oxobutanoate]
9630 nM | Cc1ccc(-c2cn3nc(-c4ccc(C(=O)O)cc4F)ccc3n2)cc1NC(=O)C(C)(C)C [compound 523]
334 nM | Cc1ccc(-c2cn3nc(-c4ccc(C(F)(F)F)cn4)ccc3n2)cc1NC(=O)C(C)(C)C [Example 457, N-(2-methyl-5-(6-(5-(trifluoromethyl)pyridin-2-yl)imidazo[1,2-b]pyridazin-2-yl)phenyl)pivalamide]
1140 nM | COC(=O)c1ccc(-c2ccc3nc(-c4ccc(C)c(NC(=O)C(C)(C)C)c4)cn3n2)cc1 [compound 582]
155 nM | Cc1ccc(-c2cn3nc(-c4ccc(C(N)=NO)cc4C)ccc3n2)cc1NC(=O)C(C)(C)C [compound 576]
2020 nM | C[C@@H]1CNCCN1c1ccc2nc(-c3ccc(C(F)(F)F)c(NC(=O)C(C)(C)C)c3)cn2n1 [Example 466, (R)-N-(5-(6-(2-methylpiperazin-1-yl)imidazo[1,2-b]pyridazin-2-yl)-2-(trifluoromethyl)phenyl)pivalamide]
> 10000 nM | COc1ccc2nc(-c3ccc(C)c(NC(=O)c4cccc(C=CC(=O)NO)c4)c3)cn2n1 [compound 616]
398 nM | CCc1ccc(-c2cn3nc(-c4ccc(C(F)(F)F)nc4)ccc3n2)cc1NC(=O)C(C)(C)C [Example 338, N-(2-ethyl-5-(6-(6-(trifluoromethyl)pyridin-3-yl)imidazo[1,2-b]pyridazin-2-yl)phenyl)pivalamide]
1000 nM | Cc1ccc(-c2cn3nc(-c4c(C)n[nH]c4C)ccc3n2)cc1NC(=O)C(C)(C)C [compound 501]
1300 nM | CC(=O)c1ccc(-c2ccc3nc(-c4ccc(C)c(NC(=O)C(C)(C)C)c4)cn3n2)cc1 [compound 522]
596 nM | CCOC(=O)C=Cc1ccc2nc(-c3ccc(C)c(NC(=O)C(C)(C)C)c3)cn2n1 [compound 572]
346 nM | CC(C)(C)C(=O)Nc1cc(-c2cn3nc(NC4CCC(O)CC4)ccc3n2)ccc1C(F)(F)F (stereo not drawn) [Example 314, N-(5-(6-(4-hydroxycyclohexylamino)imidazo[1,2-b]pyridazin-2-yl)-2-(trifluoromethyl)phenyl)pivalamide]
2240 nM | Cc1ccc(-c2cn3nc(Cl)ccc3n2)cc1NC(=O)c1cccc(C=CC(=O)NO)c1 [compound 615]

IC50 | SMILES
2300 nM | Cc1ccc(-c2cn3nc(-c4ccc(NC(=O)CCCCCCC(=O)O)cc4)ccc3n2)cc1NC(=O)C(C)(C)C [compound 561]
740 nM | CC(C)(C)C(=O)Nc1cc(-c2cn3nc(-c4cccc(S(C)(=O)=O)c4)ccc3n2)ccc1C(F)(F)F [Example 325, N-(5-(6-(3-(methylsulfonyl)phenyl)imidazo[1,2-b]pyridazin-2-yl)-2-(trifluoromethyl)phenyl)pivalamide]
2060 nM | Cc1ccc(-c2cn3nc(-c4cccnc4O)ccc3n2)cc1NC(=O)C(C)(C)C [Example 406, N-(5-(6-(2-hydroxypyridin-3-yl)imidazo[1,2-b]pyridazin-2-yl)-2-methylphenyl)pivalamide]
8390 nM | COc1cc(-c2ccc3nc(-c4ccc(C)c(NC(=O)C(C)(C)C)c4)cn3n2)ncc1C(=O)O [Example 461, 4-methoxy-6-(2-(4-methyl-3-pivalamidophenyl)imidazo[1,2-b]pyridazin-6-yl)nicotinic acid]
734 nM | Cc1ccc(-c2cn3nc(-c4ccc(C(N)=O)nc4)ccc3n2)cc1NC(=O)C(C)(C)C [compound 537]
1050 nM | CC(=O)c1cccc(-c2ccc3nc(-c4ccc(C)c(NC(=O)C(C)(C)C)c4)cn3n2)c1 [compound 527]
253 nM | Cc1ccc(-c2cn3nc(-c4ccc(OCCCCCC(=O)NO)cc4C(F)(F)F)ccc3n2)cc1NC(=O)C(C)(C)C [Example 416, N-hydroxy-6-(4-(2-(4-methyl-3-pivalamidophenyl)imidazo[1,2-b]pyridazin-6-yl)-3-(trifluoromethyl)phenoxy)hexanamide]
277 nM | Cc1ccc(-c2nc3ccc(-c4ccc(C(F)(F)F)nc4)nn3c2C)cc1NC(=O)C(C)(C)C [Example 339, N-(2-methyl-5-(3-methyl-6-(6-(trifluoromethyl)pyridin-3-yl)imidazo[1,2-b]pyridazin-2-yl)phenyl)pivalamide]
484 nM | CC(C)(C)OC(=O)N1CCN(c2ccc3nc(-c4ccc(C(F)(F)F)c(NC(=O)C(C)(C)C)c4)cn3n2)CC1 [Example 327, tert-butyl 4-(2-(3-pivalamido-4-(trifluoromethyl)phenyl)imidazo[1,2-b]pyridazin-6-yl)piperazine-1-carboxylate]
1610 nM | CC(C)(C)C(=O)Nc1cc(-c2cn3nc(-c4cccnc4N4CCOCC4)ccc3n2)ccc1C(F)(F)F [Example 335, N-(5-(6-(2-morpholinopyridin-3-yl)imidazo[1,2-b]pyridazin-2-yl)-2-(trifluoromethyl)phenyl)pivalamide]
376 nM | CC(=O)Nc1ncc(-c2cc(-c3cn4nc(-c5cccnc5C(F)(F)F)ccc4n3)ccc2C)s1 [compound 513]
2500 nM | Cc1ccc(-c2cn3nc(-c4cccnc4C(F)(F)F)ccc3n2)cc1-c1c(C)noc1C [compound 507]
2910 nM | Cc1ccc(-c2cn3nc(-c4cccnc4C(F)(F)F)ccc3n2)cc1NS(=O)(=O)c1cccc(C=CC(=O)NO)c1 [compound 626, N-hydroxy-3-(3-(N-(2-methyl-5-(6-(2-(trifluoromethyl)pyridin-3-yl)imidazo[1,2-b]pyridazin-2-yl)phenyl)sulfamoyl)phenyl)acrylamide]
1700 nM | Cc1ccc(-c2cn3nc(-c4ccc(O)cc4)ccc3n2)cc1NC(=O)C(C)(C)C [compound 519]
443 nM | COC(=O)c1ccc(CNc2ccc3nc(-c4ccc(C)c(NC(=O)C(C)(C)C)c4)cn3n2)cc1 [compound 592]
82 nM | Cc1ccc(-c2cn3nc(-c4cccnc4C#N)ccc3n2)cc1NC(=O)C(C)(C)C [compound 581, N-(5-(6-(2-cyanopyridin-3-yl)imidazo[1,2-b]pyridazin-2-yl)-2-methylphenyl)pivalamide]

same assay, conditions: hShh activation, read-out: Shh (IC50, inhibition of Hedgehog pathway activation)

IC50 | SMILES
701 nM | Cc1ccc(-c2cn3nc(-c4cccnc4C(F)(F)F)ccc3n2)cc1NC(=O)CCCCCCC(=O)O [compound 553, 8-((2-methyl-5-(6-(2-(trifluoromethyl)pyridin-3-yl)imidazo[1,2-b]pyridazin-2-yl)phenyl)amino)-8-oxooctanoic acid]
